Reference: PMC2880888 (Journal of medicinal chemistry, 2010)

How the values were obtained:
[1] = tested on: control 1321N1 astrocytoma cells; assay: calcium flux in control 1321N1 astrocytoma cells; type: cell-based, human; conditions: 10 µM, non-transfected 1321N1 astrocytoma cells
[2] = stability of the C-O-P bond in aqueous medium at pH 1.5; type: physicochemical; conditions: aqueous medium at pH 1.5, over 24 h
[3] = hydrolysis of the 5’-phosphate in the presence of mammalian cell membranes; type: in vitro ADME; conditions: incubation at 37°C with 1321N1 astrocytoma cell membranes (data not shown)
aorta ring preparations = conditions: cited from earlier work
CSQ-overexpressing mouse = conditions: Alzet mini-osmotic pump; cited from earlier work
cardiac P2X receptor = conditions: cited from earlier work

CSc1nc(N)c2ncn([C@@H]3O[C@H](COP(=O)(O)OP(=O)(O)O)[C@@H](O)[C@H]3O)c2n1 [Compound 2-MeSADP, 2-MeSADP]
change in intracellular Ca2+ in control cells [1]: no change

Nc1nc(Cl)nc2c1ncn2[C@H]1[C@H](O)[C@H](O)[C@@]2(COP(=O)(O)O)C[C@H]12 [Compound 3, (1’S,2’R,3’S,4’R,5’S)-4-(6-amino-2-chloro-9H-purin-9-yl)-1-[phosphoryloxymethyl] bicyclo[3.1.0]hexane-2,3-diol]
stability of the C-O-P bond [2]: stable
hydrolysis of the 5’-phosphate [3]: considerable hydrolysis
vasodilator action (aorta ring preparations): devoid of any vasodilator action
longevity compared to vehicle-injected mice (CSQ-overexpressing mouse): significantly increased longevity
current induced in the CSQ myocyte (cardiac P2X receptor; CSQ myocyte): induced a current

CNc1nc(I)nc2c1ncn2[C@H]1C[C@H](OP(=O)(O)O)[C@]2(COP(=O)(O)O)C[C@H]12 [MRS2500]
block of the membrane current evoked by 3 (cardiac P2X receptor; voltage clamp in mouse cardiac myocytes): could not block
